Results taken from article PMC11094793, “Discovery of LLC0424 as a Potent and Selective in Vivo NSD2 PROTAC Degrader” (Journal of Medicinal Chemistry, 2024).

Legend:
NSD2 = target: T1, NSD2 (Homo sapiens, UniProt O96028); assay: Pharmacodynamic assessment in 22RV1 xenograft model; format: in vivo, mice; set-up: from tissue; host or cells: 22RV1 subcutaneous xenograft tumours in CB17 SCID mice; settings: 5 consecutive days
T1 sequence (O96028 1-1365): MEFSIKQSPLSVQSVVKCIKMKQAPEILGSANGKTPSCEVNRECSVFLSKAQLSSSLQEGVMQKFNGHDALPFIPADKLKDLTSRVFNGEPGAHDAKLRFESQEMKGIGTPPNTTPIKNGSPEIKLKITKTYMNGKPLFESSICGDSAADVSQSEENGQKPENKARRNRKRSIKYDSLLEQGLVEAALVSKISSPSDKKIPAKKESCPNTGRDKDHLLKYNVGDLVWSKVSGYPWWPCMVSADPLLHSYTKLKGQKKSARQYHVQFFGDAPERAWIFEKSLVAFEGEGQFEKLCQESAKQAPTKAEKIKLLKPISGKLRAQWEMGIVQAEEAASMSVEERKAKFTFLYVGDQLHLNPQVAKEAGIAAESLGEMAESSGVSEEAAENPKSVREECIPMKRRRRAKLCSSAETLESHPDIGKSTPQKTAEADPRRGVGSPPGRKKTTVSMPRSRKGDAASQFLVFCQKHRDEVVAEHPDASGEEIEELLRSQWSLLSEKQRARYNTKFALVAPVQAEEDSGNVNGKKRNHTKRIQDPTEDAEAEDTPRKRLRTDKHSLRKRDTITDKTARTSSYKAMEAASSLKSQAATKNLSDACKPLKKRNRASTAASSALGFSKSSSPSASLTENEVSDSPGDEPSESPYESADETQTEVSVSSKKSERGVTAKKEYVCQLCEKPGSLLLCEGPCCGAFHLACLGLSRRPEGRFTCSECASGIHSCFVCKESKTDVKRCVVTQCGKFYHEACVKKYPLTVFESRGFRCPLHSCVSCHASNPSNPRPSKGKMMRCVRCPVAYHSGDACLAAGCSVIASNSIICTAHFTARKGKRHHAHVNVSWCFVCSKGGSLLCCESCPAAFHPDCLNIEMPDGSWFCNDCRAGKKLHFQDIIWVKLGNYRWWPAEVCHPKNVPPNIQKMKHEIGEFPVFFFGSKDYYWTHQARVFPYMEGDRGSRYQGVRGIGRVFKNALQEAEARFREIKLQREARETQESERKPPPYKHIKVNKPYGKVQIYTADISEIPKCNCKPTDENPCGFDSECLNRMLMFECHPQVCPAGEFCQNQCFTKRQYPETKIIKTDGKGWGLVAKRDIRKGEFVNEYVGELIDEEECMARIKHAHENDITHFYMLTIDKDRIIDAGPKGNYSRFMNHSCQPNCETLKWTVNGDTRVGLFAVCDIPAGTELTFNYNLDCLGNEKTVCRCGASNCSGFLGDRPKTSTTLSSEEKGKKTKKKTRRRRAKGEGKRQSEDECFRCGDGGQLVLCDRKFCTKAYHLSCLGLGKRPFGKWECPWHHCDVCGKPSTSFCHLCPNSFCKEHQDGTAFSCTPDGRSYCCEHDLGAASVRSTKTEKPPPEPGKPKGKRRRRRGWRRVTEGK
Experimental: We finally performed pharmacodynamic assessment of LLC0424 in both the SEM and 22RV1 xenograft model. Based on the solubility of LLC0424 and the tolerance of the mice, we chose 60 mg/kg as the dosage for the pharmacodynamic study. LLC0424 was administrated by intravenous (iv) or intraperitoneal (ip) injection at a dose of 60 mg/kg for 5 consecutive days. The tumor tissues were harvested at day 5 and subjected to histology and Western blot analysis (Figure 7A, and SI, Figure S6A).
First, 6–8 weeks old male CB17 severe combined immunodeficiency (SCID) mice were procured from the University of Michigan breeding colony. Subcutaneous tumors were established at both sides of the dorsal flank of mice. Tumors were measured at least biweekly using digital calipers following the formula (π/6) (L × W2), where L is length and W is width of the tumor. At the end of the studies, mice were sacrificed and tumors extracted. For each tumor, a part is […] followed by embedding in paraffin to make tissue blocks. The blocks were sectioned at […] for immunohistochemistry analysis. Another part is made into tissue lysates for Western blotting analysis. The University of Michigan Institutional Animal Care and Use Committee (IACUC) approved all in vivo studies. […]

RPMI-8402 cells = assay: Colony formation in soft agar; format: cell-based, human; settings: 30 days
Experimental: Colony formation in soft agar was conducted in 12-well plates, with the bottom layer containing 750 μL of 0.8% agarose in 10% FBS/cell media and the top layer containing 0.4% agarose (SEM cells or RPMI-8402 cells). LLC0424 was added every 3 days to the liquid layer on top agarose to reach a final concentration of 2 μM. At the 30 days of treatment, the cells were stained with iodonitrotetrazolium chloride (INT) by adding 500 μL 1× INT PBS solution into each well. After the staining, images were taken using brightfield microscope and plate scan was conducted using Epson Perfection V700 Photo. Colony number counting was performed using ImageJ.

[1] = compared to DMSO or LLC0424N-treated group

NSD2 level in tumor tissue (NSD2; 60 mg/kg iv or ip, versus vehicle): significantly downregulated
NSD2 degradation, iv versus ip administration (NSD2; 60 mg/kg): comparable level of NSD2 degradation
SMILES: O=C1CCC(N2C(=O)c3ccc(N4CCC(NC(=O)c5ccc(NC(=O)c6ccc(CN(C(=O)c7ccc8c(c7)OCC(=O)N8)C7CC7)cc6)cc5)CC4)cc3C2=O)C(=O)N1 (centres unmarked) [compound 10l, N-Cyclopropyl-N-(4-((4-((1-(2-(2,6-dioxopiperidin-3-yl)-1,3-dioxoisoindolin-5-yl)piperidin-4-yl)carbamoyl)phenyl)carbamoyl)benzyl)-3-oxo-3,4-dihydro-2H-benzo[b][1,4]oxazine-7-carboxamide]
formation of cell colonies (RPMI-8402 cells; 2 μM, INT staining): significantly reduced the formation of cell colonies
colony area (RPMI-8402 cells; [1]): obviously smaller colonies
colony numbers (RPMI-8402 cells; [1]): significantly fewer cell colonies
